From US20200165194A1, “ADDITIVE COMPOSITION FOR CULTURE MEDIUM, ADDITIVE COMPOUND FOR CULTURE MEDIUM, AND METHOD FOR CULTURE OF CELLS OR TISSUE USING SAME” (NISSAN CHEMICAL CORPORATION, priority 2017, published 2020)
Like-named read-outs stand apart in the source and are kept apart here.

Legend:
Format in all cases: cell-based
[1] = tested on: human alveolar basal epithelial adenocarcinoma-derived cell line A549; assay: Various human cancer cells-2, 3D culture, ATP assay (Experimental Example 6); details: 4 days; for viability at 5 µM / viability at 10 µM: Homo sapiens, A549, 96 h, read-out: number of viable cells (RLU), relative value to control (100%)
Experimental: (§1) Various human-derived cancer cells were precultured (single layer culture) in respective media shown below. […] The above-mentioned cells in the logarithmic growth phase were washed with PBS, a 0.25 w/v % trypsin-1 mmol/L EDTA (ethylenediaminetetraacetic acid) solution (manufactured by Wako Pure Chemical Industries, Ltd.) was added, and adherent cells were detached by incubating at 37° C. for 1-5 min. Each medium was added and the mixture was centrifuged. After resuspension in the same medium, each cell was recovered.
(§2) The aforementioned various cells were suspended in respective deacylated gellan gum-containing or not containing media (deacylated gellan gum concentration was 0.015 w/v %), and seeded in a 96 well low attachment U-bottom plate (manufactured by Corning, #4520, deacylated gellan gum-free medium), or a low attachment flat bottom plate (manufactured by Corning, #3474, deacylated gellan gum-containing medium) at a cell concentration of 700-12000 cells/90 μL/well (all 3D culture). […] The amount of each compound solution to be added was 10 μL/well. As a control, a DMSO solution dissolved in a medium was added (DMSO final concentration 0.1%). […] When compared with the compound no-addition (control), one showing a value of not more than 119% as -, one showing a value of not less than 120% as ◯, and one showing a value of not less than 150% as ⊚ are shown in the eleventh table and the twelfth table. Unperformed test is left blank.

[2] = tested on: human ovarian cancer cell line SKOV3; assay: as above; details: 4 days; for viability at 5 µM / viability at 10 µM: Homo sapiens, SK-OV-3, 96 h, read-out: number of viable cells (RLU), relative value to control (100%)
Experimental: as §1, §2

[3] = tested on: a plurality of cancer cell lines; assay: Various human cancer cells-2, summary over the cell lines (Experimental Example 6); details: cancer cell lines under three-dimensional conditions
Experimental: as §1, §2

hiPS cell line 253G1 = assay: Human pluripotent stem cell (hiPS cell), EZSPHERE plate, ATP assay (Experimental Example 13); details: for relative value (%): hiPS 253G1, EZSPHERE plate, 5 μM, 3 days, RLU of DMSO addition = 100%; for proliferation activity (in words): human pluripotent stem cells under three-dimensional conditions
Experimental: hiPS cell line 253G1 (purchased from RIKEN) was cultured on a dish coated with vitronectin VTN-N (manufactured by Thermo Fisher Scientific) using mTeSR1 (registered trade mark) medium (manufactured by STEMCELL Technologies). The above-mentioned cells in the proliferation phase were washed with PBS (manufactured by Fujifilm Corporation Wako Pure Chemical Industries, Ltd.), TrypLE Select (registered trade mark) (manufactured by Thermo Fisher Scientific) was added and the mixture was incubated at 37° C. for 3 min to remove the detaching solution. The medium was added and the cells were detached by pipetting. Thereafter, the supernatant was removed by centrifugation.
The aforementioned cells were suspended in a medium containing 10 μM Y-27632 (manufactured by Fujifilm Corporation Wako Pure Chemical Industries, Ltd.) and seeded in a 96-well EZSPHERE plate (manufactured by AGC TECHNO GLASS CO., LTD., #4860-900) at a cell concentration of 10000 cells/200 μL/well. […] The amount of each compound solution to be added was 2 μL/well. As a control, a DMSO solution dissolved in a medium was added (DMSO final concentration 0.05%). The medium was exchanged by half the volume every day, and each compound solution was also added to make the compound concentration constant.

[4] = tested on: Cercopithecus aethiops kidney epithelium-derived cell line Vero; assay: Animal cell lines, 3D culture, ATP assay (Experimental Example 15); details: 4 days
Source text: (§3) Various animal cell lines were precultured (single layer culture) as follows in respective media. Chinese hamster ovary-derived cell line CHO-K1 (manufactured by DS PHARMA BIO MEDICAL, 10% fetal bovine serum (FBS, manufactured by Corning)-containing Ham's F-12 medium (manufactured by Fujifilm Wako Pure Chemical Corporation)), Cercopithecus aethiops kidney epithelium-derived cell line Vero (purchased from JCRB cell bank, 5% FBS-containing Medium 199 medium (manufactured by Life Technologies)). The above-mentioned cells in the logarithmic growth phase were washed with PBS, a 0.25 w/v % trypsin-1 mmol/L EDTA (ethylenediaminetetraacetic acid) solution (manufactured by Fujifilm Wako Pure Chemical Corporation) was added, and adherent cells were detached by incubating at 37° C. for 3 min. Each medium was added and the mixture was centrifuged and resuspended in the same medium.
(§4) The aforementioned various animal cells were suspended in respective deacylated gellan gum-containing or not containing media (deacylated gellan gum concentration was 0.02 w/v % in Ham's F-12 medium, 0.015 w/v % in Medium 199 medium), and seeded in a 96 well low attachment U-bottom plate (manufactured by Corning, #4520, deacylated gellan gum-free medium), or a low attachment flat bottom plate (manufactured by Corning, #3474, deacylated gellan gum-containing medium) at a cell concentration of 700-2000 cells/90 μL/well (all 3D culture). […] The amount of each compound solution to be added was […]. As a control, a DMSO solution dissolved in a medium was added (DMSO final concentration 0.1%). […] When compared with the compound non-addition (control), one showing a value of not more than 119% as -, one showing a value of not less than 120% as ◯, and one showing a value of not less than 150% as ⊚ are shown in the twenty-third table and the twenty-fourth table.

[5] = tested on: Chinese hamster ovary-derived cell line CHO-K1; assay: as above; details: CHO-K1, 4 days; for viability at 5 µM / viability at 10 µM: Cricetulus griseus, CHO-K1, 96 h, read-out: number of viable cells (RLU), relative value to control (100%)
Source text: as §3, §4

plural animal cell lines = assay: Animal cell lines, summary over the cell lines (Experimental Example 15); details: animal cell lines under three-dimensional conditions
Source text: as §3, §4

[6] = low attachment U-bottom plate, 5 μM
[7] = low attachment U-bottom plate, 10 μM
[8] = low attachment flat bottom plate (gellan gum medium), 5 μM
[9] = low attachment flat bottom plate (gellan gum medium), 10 μM
[10] = low attachment flat bottom plate (deacylated gellan gum-containing medium), 5 μM
[11] = low attachment flat bottom plate (deacylated gellan gum-containing medium), 10 μM

SMILES	number of viable cells (RLU), relative value to control (100%) [1, 6]	number of viable cells (RLU), relative value to control (100%) [1, 7]	number of viable cells (RLU), relative value to control (100%) [1, 8]	number of viable cells (RLU), relative value to control (100%) [1, 9]	number of viable cells (RLU), relative value to control (100%) [2, 6]	number of viable cells (RLU), relative value to control (100%) [2, 7]	number of viable cells (RLU), relative value to control (100%) [2, 8]	number of viable cells (RLU), relative value to control (100%) [2, 9]	proliferation activity (in words) [3]	relative value (%) (hiPS cell line 253G1)	proliferation activity (in words) (hiPS cell line 253G1)	number of viable cells (RLU), relative value to control (100%) [4, 6]	number of viable cells (RLU), relative value to control (100%) [4, 7]	number of viable cells (RLU), relative value to control (100%) [4, 10]	number of viable cells (RLU), relative value to control (100%) [4, 11]	viability at 5 µM [5, 6] [%]	viability at 10 µM [5, 7] [%]	viability at 5 µM [5, 10] [%]	viability at 10 µM [5, 11] [%]	proliferation activity (in words) (plural animal cell lines)	other results
CC/C(=N\NC(=O)C(C)Nc1ccccc1)c1ccc(O)c(C)c1O (stereo not drawn) [k-1:B-1]	⊙	⊙	⊙	⊙	⊙	⊙	⊙	⊙	promoted proliferation activity in a plurality of cancer cell lines	193	promoted proliferation activity in human pluripotent stem cells	⊙	⊙	⊙	⊙	< 119	< 119	120 to 150	< 119	promoted proliferation activity in plural animal cell lines	–
CC/C(=N\NC(=O)CNc1cccc(O)c1)c1ccc(O)c(C)c1O [k-1:D-1]	⊙	⊙	⊙	⊙	⊙	⊙	⊙	⊙	promoted proliferation activity in a plurality of cancer cell lines	207	promoted proliferation activity in human pluripotent stem cells	⊙	⊙	⊙	⊙	< 119	< 119	–	–	promoted proliferation activity in plural animal cell lines	number of viable cells (RLU), relative value to control (100%) [5, 10]: ⊙; number of viable cells (RLU), relative value to control (100%) [5, 11]: ⊙
CCC(=NNC(=O)C(CC)Nc1ccccc1)c1ccc(O)c(C)c1O (stereo not drawn) [k-1:H-7]	–	–	–	–	–	–	–	–	–	194	promoted proliferation activity in human pluripotent stem cells	⊙	⊙	⊙	⊙	–	–	–	–	promoted proliferation activity in plural animal cell lines	number of viable cells (RLU), relative value to control (100%) [5, 10]: ◯ (one showing a value of not less than 120% as ◯)
CC/C(=N\NC(=O)NCc1ccccc1)c1ccc(O)c(C)c1O [k-1:I-1]	–	–	–	–	–	–	–	–	promoted proliferation activity in a plurality of cancer cell lines	–	–	–	⊙	–	–	< 119	< 119	< 119	< 119	promoted proliferation activity in plural animal cell lines	viability at 5 µM [1, 6]: < 119%; viability at 10 µM [1, 7]: < 119%; viability at 5 µM [1, 8]: < 119%; viability at 10 µM [1, 9]: 120 to 150%; viability at 5 µM [2, 6]: 120 to 150%; viability at 10 µM [2, 7]: 120 to 150%; viability at 5 µM [2, 8]: < 119%; viability at 10 µM [2, 9]: 120 to 150%; viability at 5 µM ([4]; Chlorocebus sabaeus, 96 h, low attachment U-bottom plate, 5 μM, read-out: number of viable cells (RLU), relative value to control (100%)): > 120%; viability at 5 µM ([4]; Chlorocebus sabaeus, 96 h, low attachment flat bottom plate (deacylated gellan gum-containing medium), 5 μM, read-out: number of viable cells (RLU), relative value to control (100%)): < 119%; viability at 10 µM ([4]; Chlorocebus sabaeus, 96 h, low attachment flat bottom plate (deacylated gellan gum-containing medium), 10 μM, read-out: number of viable cells (RLU), relative value to control (100%)): < 119%
